In ChEMBL document CHEMBL4665642, “Anticancer profile of newly synthesized BRAF inhibitors possess 5-(pyrimidin-4-yl)imidazo[2,1-b]thiazole scaffold” (Bioorg Med Chem, 2019):

How the values were obtained:
Format in all cases: functional
Conditions in all cases: read-out: Activity
NCI-H460 = test: Cytotoxicity against human NCI-H460 cells assessed as cell viability at 10 uM incubated for 48 hrs by sulforhodamine B assay relative to control
HCT-116 = test: Cytotoxicity against human HCT-116 cells assessed as cell viability at 10 uM incubated for 48 hrs by sulforhodamine B assay relative to control
IGROV-1 = test: Cytotoxicity against human IGROV-1 cells assessed as cell viability at 10 uM incubated for 48 hrs by sulforhodamine B assay relative to control
HOP-92 = test: Cytotoxicity against human HOP-92 cells assessed as cell viability at 10 uM incubated for 48 hrs by sulforhodamine B assay relative to control
SF-268 = test: Cytotoxicity against human SF-268 cells assessed as cell viability at 10 uM incubated for 48 hrs by sulforhodamine B assay relative to control
NCI-H226 = test: Cytotoxicity against human NCI-H226 cells assessed as cell viability at 10 uM incubated for 48 hrs by sulforhodamine B assay relative to control
UACC-257 = test: Cytotoxicity against human UACC-257 cells assessed as cell viability at 10 uM incubated for 48 hrs by sulforhodamine B assay relative to control
ACHN = test: Cytotoxicity against human ACHN cells assessed as cell viability at 10 uM incubated for 48 hrs by sulforhodamine B assay relative to control
SN12C = test: Cytotoxicity against human SN12C cells assessed as cell viability at 10 uM incubated for 48 hrs by sulforhodamine B assay relative to control
CCRF-CEM = test: Cytotoxicity against human CCRF-CEM cells assessed as cell viability at 10 uM incubated for 48 hrs by sulforhodamine B assay relative to control
A549 = test: Cytotoxicity against human A549 cells assessed as cell viability at 10 uM incubated for 48 hrs by sulforhodamine B assay relative to control
HCC 2998 = test: Cytotoxicity against human HCC 2998 cells assessed as cell viability at 10 uM incubated for 48 hrs by sulforhodamine B assay relative to control
SNB-75 = test: Cytotoxicity against human SNB-75 cells assessed as cell viability at 10 uM incubated for 48 hrs by sulforhodamine B assay relative to control
DU-145 = test: Cytotoxicity against human DU-145 cells assessed as cell viability at 10 uM incubated for 48 hrs by sulforhodamine B assay relative to control
SK-MEL-2 = test: Cytotoxicity against human SK-MEL-2 cells assessed as cell viability at 10 uM incubated for 48 hrs by sulforhodamine B assay relative to control
T47D = test: Cytotoxicity against human T47D cells assessed as cell viability at 10 uM incubated for 48 hrs by sulforhodamine B assay relative to control
EKVX = test: Cytotoxicity against human EKVX cells assessed as cell viability at 10 uM incubated for 48 hrs by sulforhodamine B assay relative to control
SW-620 = test: Cytotoxicity against human SW-620 cells assessed as cell viability at 10 uM incubated for 48 hrs by sulforhodamine B assay relative to control
NCI-H322M = test: Cytotoxicity against human NCI-H322M cells assessed as cell viability at 10 uM incubated for 48 hrs by sulforhodamine B assay relative to control
HOP-62 = test: Cytotoxicity against human HOP-62 cells assessed as cell viability at 10 uM incubated for 48 hrs by sulforhodamine B assay relative to control
SK-MEL-28 = test: Cytotoxicity against human SK-MEL-28 cells assessed as cell viability at 10 uM incubated for 48 hrs by sulforhodamine B assay relative to control
MCF7 = test: Cytotoxicity against human MCF7 cells assessed as cell viability at 10 uM incubated for 48 hrs by sulforhodamine B assay relative to control
HCT-15 = test: Cytotoxicity against human HCT-15 cells assessed as cell viability at 10 uM incubated for 48 hrs by sulforhodamine B assay relative to control
LOX IMVI = test: Cytotoxicity against human LOX IMVI cells assessed as cell viability at 10 uM incubated for 48 hrs by sulforhodamine B assay relative to control
SK-MEL-5 = test: Cytotoxicity against human SK-MEL-5 cells assessed as cell viability at 10 uM incubated for 48 hrs by sulforhodamine B assay relative to control
UACC-62 = test: Cytotoxicity against human UACC-62 cells assessed as cell viability at 10 uM incubated for 48 hrs by sulforhodamine B assay relative to control
UO-31 = test: Cytotoxicity against human UO-31 cells assessed as cell viability at 10 uM incubated for 48 hrs by sulforhodamine B assay relative to control
MDA-MB-231 = test: Cytotoxicity against human MDA-MB-231 cells assessed as cell viability at 10 uM incubated for 48 hrs by sulforhodamine B assay relative to control
MDA-MB-468 = test: Cytotoxicity against human MDA-MB-468 cells assessed as cell viability at 10 uM incubated for 48 hrs by sulforhodamine B assay relative to control
SR = test: Cytotoxicity against human SR cells assessed as cell viability at 10 uM incubated for 48 hrs by sulforhodamine B assay relative to control
MOLT-4 = test: Cytotoxicity against human MOLT-4 cells assessed as cell viability at 10 uM incubated for 48 hrs by sulforhodamine B assay relative to control
COLO 205 = test: Cytotoxicity against human COLO 205 cells assessed as cell viability at 10 uM incubated for 48 hrs by sulforhodamine B assay relative to control
CAKI-1 = test: Cytotoxicity against human CAKI-1 cells assessed as cell viability at 10 uM incubated for 48 hrs by sulforhodamine B assay relative to control
NCI-H522 = test: Cytotoxicity against human NCI-H522 cells assessed as cell viability at 10 uM incubated for 48 hrs by sulforhodamine B assay relative to control
K562 = test: Cytotoxicity against human K562 cells assessed as cell viability at 10 uM incubated for 48 hrs by sulforhodamine B assay relative to control
RPMI-8226 = test: Cytotoxicity against human RPMI-8226 cells assessed as cell viability at 10 uM incubated for 48 hrs by sulforhodamine B assay relative to control
SNB-19 = test: Cytotoxicity against human SNB-19 cells assessed as cell viability at 10 uM incubated for 48 hrs by sulforhodamine B assay relative to control
HCT-29 = test: Cytotoxicity against human […] cells assessed as cell viability at 10 uM incubated for 48 hrs by sulforhodamine B assay relative to control
SK-OV-3 = test: Cytotoxicity against human SK-OV-3 cells assessed as cell viability at 10 uM incubated for 48 hrs by sulforhodamine B assay relative to control
NCI-H23 = test: Cytotoxicity against human NCI-H23 cells assessed as cell viability at 10 uM incubated for 48 hrs by sulforhodamine B assay relative to control
KM12 = test: Cytotoxicity against human KM12 cells assessed as cell viability at 10 uM incubated for 48 hrs by sulforhodamine B assay relative to control

O=C(NCCNc1nccc(-c2c(-c3cccc(F)c3)nc3sccn23)n1)c1ccccc1
viability at 10 µM (NCI-H460): 28.8% | viability at 10 µM (HCT-116): 25.6% | viability at 10 µM (IGROV-1): 16.5% | viability at 10 µM (HOP-92): 82.2% | viability at 10 µM (SF-268): 58.8% | viability at 10 µM (NCI-H226): 44.3% | viability at 10 µM (UACC-257): 63.1% | viability at 10 µM (ACHN): 29.1% | viability at 10 µM (SN12C): 48.2% | viability at 10 µM (CCRF-CEM): 40.9% | viability at 10 µM (A549): 26.7% | viability at 10 µM (HCC 2998): 73.8% | viability at 10 µM (SNB-75): 54.6% | viability at 10 µM (DU-145): 64.5% | viability at 10 µM (SK-MEL-2): 51.4% | viability at 10 µM (T47D): 34.5% | viability at 10 µM (EKVX): 54.4% | viability at 10 µM (SW-620): 52.3% | viability at 10 µM (NCI-H322M): 64.8% | viability at 10 µM (HOP-62): 77.5% | viability at 10 µM (SK-MEL-28): 58.7% | viability at 10 µM (MCF7): 23.7% | viability at 10 µM (HCT-15): 34.6% | viability at 10 µM (LOX IMVI): 35.1% | viability at 10 µM (SK-MEL-5): 25.6% | viability at 10 µM (UACC-62): 11.2% | viability at 10 µM (UO-31): 22.8% | viability at 10 µM (MDA-MB-231): 65.1% | viability at 10 µM (MDA-MB-468): 57.4% | viability at 10 µM (SR): 29.4% | viability at 10 µM (MOLT-4): 46.5% | viability at 10 µM (COLO 205): 10.4% | viability at 10 µM (CAKI-1): 36.4% | viability at 10 µM (NCI-H522): 57.9% | viability at 10 µM (K562): 44% | viability at 10 µM (RPMI-8226): 45.7% | viability at 10 µM (SNB-19): 63.5% | viability at 10 µM (HCT-29): 25.8% | viability at 10 µM (SK-OV-3): 75.1% | viability at 10 µM (NCI-H23): 64.9% | viability at 10 µM (KM12): 56.6%

O=C(NCCNc1nccc(-c2c(-c3cccc(F)c3)nc3sccn23)n1)c1ccc(Cl)cc1
viability at 10 µM (NCI-H460): 35.8% | viability at 10 µM (HCT-116): 33% | viability at 10 µM (IGROV-1): 22.5% | viability at 10 µM (HOP-92): 87.1% | viability at 10 µM (SF-268): 67.9% | viability at 10 µM (NCI-H226): 51.2% | viability at 10 µM (UACC-257): 76% | viability at 10 µM (ACHN): 34.2% | viability at 10 µM (SN12C): 52.5% | viability at 10 µM (CCRF-CEM): 58.1% | viability at 10 µM (A549): 34.8% | viability at 10 µM (HCC 2998): 90.1% | viability at 10 µM (SNB-75): 63.5% | viability at 10 µM (DU-145): 71% | viability at 10 µM (SK-MEL-2): 62.5% | viability at 10 µM (T47D): 49% | viability at 10 µM (EKVX): 63.2% | viability at 10 µM (SW-620): 65.2% | viability at 10 µM (NCI-H322M): 66.3% | viability at 10 µM (HOP-62): 91.9% | viability at 10 µM (SK-MEL-28): 64.9% | viability at 10 µM (MCF7): 27.7% | viability at 10 µM (HCT-15): 40.1% | viability at 10 µM (LOX IMVI): 43.4% | viability at 10 µM (SK-MEL-5): 33.6% | viability at 10 µM (UACC-62): 14.7% | viability at 10 µM (UO-31): 28.1% | viability at 10 µM (MDA-MB-231): 65.5% | viability at 10 µM (MDA-MB-468): 67.8% | viability at 10 µM (SR): 46.5% | viability at 10 µM (MOLT-4): 65.7% | viability at 10 µM (COLO 205): 29.8% | viability at 10 µM (CAKI-1): 41.5% | viability at 10 µM (NCI-H522): 68.4% | viability at 10 µM (K562): 54.4% | viability at 10 µM (RPMI-8226): 62.4% | viability at 10 µM (SNB-19): 71.9% | viability at 10 µM (HCT-29): 35.2% | viability at 10 µM (SK-OV-3): 80.9% | viability at 10 µM (NCI-H23): 73.5% | viability at 10 µM (KM12): 62.8%

O=C(NCCNc1nccc(-c2c(-c3cccc(F)c3)nc3sccn23)n1)c1c(F)cccc1F
viability at 10 µM (NCI-H460): 24.8% | viability at 10 µM (HCT-116): 24.9% | viability at 10 µM (IGROV-1): 12.1% | viability at 10 µM (HOP-92): 66.2% | viability at 10 µM (SF-268): 54.4% | viability at 10 µM (NCI-H226): 40.7% | viability at 10 µM (UACC-257): 54.7% | viability at 10 µM (ACHN): 26% | viability at 10 µM (SN12C): 45% | viability at 10 µM (CCRF-CEM): 42.8% | viability at 10 µM (A549): 29.1% | viability at 10 µM (HCC 2998): 70.4% | viability at 10 µM (SNB-75): 59.5% | viability at 10 µM (DU-145): 50.1% | viability at 10 µM (SK-MEL-2): 62.4% | viability at 10 µM (T47D): 26.7% | viability at 10 µM (EKVX): 61.2% | viability at 10 µM (SW-620): 47.3% | viability at 10 µM (NCI-H322M): 57.5% | viability at 10 µM (HOP-62): 63.8% | viability at 10 µM (SK-MEL-28): 51.1% | viability at 10 µM (MCF7): 17.5% | viability at 10 µM (HCT-15): 31.1% | viability at 10 µM (LOX IMVI): 32.4% | viability at 10 µM (SK-MEL-5): 17.1% | viability at 10 µM (UACC-62): 10.3% | viability at 10 µM (UO-31): 20.8% | viability at 10 µM (MDA-MB-231): 81.2% | viability at 10 µM (MDA-MB-468): 54.3% | viability at 10 µM (SR): 26% | viability at 10 µM (MOLT-4): 35.9% | viability at 10 µM (COLO 205): 19.2% | viability at 10 µM (CAKI-1): 34.5% | viability at 10 µM (NCI-H522): 42.8% | viability at 10 µM (K562): 40.2% | viability at 10 µM (RPMI-8226): 41% | viability at 10 µM (SNB-19): 55.2% | viability at 10 µM (HCT-29): 20.4% | viability at 10 µM (SK-OV-3): 64.1% | viability at 10 µM (NCI-H23): 61.9% | viability at 10 µM (KM12): 47.7%
